Experimental data published in US6548506B2, “Benzo[1,8]naphthyridine derivatives, their preparation and pharmaceutical compositions which comprise them” (Aventis Pharma S.A., priority 1998, dated 2003).

What was measured:
Type in all cases: in vivo
[1] = system: Staphylococcus aureus AS 5155; test: Model of experimental infection of the guinea pig with Staphylococcus aureus AS 5155; conditions: about 2%; guinea pig infected with S. aureus AS 5155, resistant to meticillin, MLSB and quinolones
[2] = 2-week topical application toxicity in rat; conditions: 2 weeks topical application b.i.d., composition at about 2, about 5 and about 10%
[3] = 2-week topical application to nasal mucous membrane of rabbit, toxicity; conditions: 2 weeks topical application b.i.d., composition at about 2%
[4] = system: Staphylococcus aureus ATCC 25923; test: Model of infection of the guinea-pig with Staphylococcus aureus ATCC 25923; conditions: about 2% in a cetomacrogol and benzyl alcohol formulation; guinea-pig infected with S. aureus ATCC 25923

## Cn1cc(C(=O)O)c(=O)c2cc3cc(F)c(N4CCN(c5ccc(F)cc5)CC4)cc3nc21 [Example 1, 7-Fluoro-8-[4-(4-fluorophenyl)piperazin-1-yl]-1-methyl-4-oxo-1,4-dihydrobenzo[b][1,8]-naphthyridine-3-carboxylic Acid]
[1]
  in vivo activity: active
[2]
  toxic effect: no toxic effect was observed
[3]
  toxic effect: no toxic effect was observed
[4]
  in vivo activity: active
